In experiment [1] the target is PI3K-α (PIK3CA) in MDA-MB-453 cells (Homo sapiens, UniProt P42336). Briefly: PI3K-Alpha Kinase (PIK3CA) activity in vitro cell based assay (AlphaLisa SureFire). How it is done:
PI3K-Alpha Kinase (PIK3CA) Activity In Vitro Cell Based Assay and Determining IC50 Values for Inhibitors
The MDA-MB-453 (ATCC-HTB-131) cell line was obtained from the American Type Culture Collection (Manassas, Va.). Cells were maintained in Dulbecco's Modified Eagle Media (DMVEM, Gibco 11965-092) supplemented with 10% Fetal Bovine Serum, heat inactivated (FBS HI, Gibco 10082-147), 1× non-essential amino acids (NEAA, Gibco 11140-050), and 1 mM sodium pyruvate (Gibco 11360-070). Cultures were maintained in a humidified incubator at 37° C. under […].
For compound testing in 0% FBS, MDA-MB-453 cells were seeded at a density of 1.5×10^4 cells per well in white 384-well plates in 20 μl of Minimum Essential Media (MEM) assay media with 1×NEAA, 1 mM sodium pyruvate, and 1 μg/mL human insulin (Sigma I9278). Compounds dissolved in 10 mM stock solutions in DMSO were serially diluted 1:3 in DMSO to generate a 10-point dilution series and plated using an acoustic liquid handler system (Echo 550 Series Liquid Handler, Labcyte). A 5× intermediate compound dilution plate in MEM with 1×NEAA and 1 mM sodium pyruvate (150 μM starting compound concentration in 1.5% DMSO) was then prepared. Five μl of the intermediate serially diluted compounds were added to the cell plate to final concentrations ranging from […] in 0.3% DMSO. 0.3% DMSO alone was used to establish the maximum (MAX) signal and GDC-0032 at a final concentration of 1 μM was used as a reference compound for the minimum (MIN) signal. After 3 hours treatment, the medium was removed, and the cells lysed in 10 μL of 1× SureFire Lysis buffer with shaking for 10 minutes at room temperature. The Acceptor Mix (Reaction Buffer 1+Reaction Buffer 2+Activation Buffer+SureFire Ultra Acceptor Beads) was prepared by diluting Activation buffer 25-fold in combined Reaction Buffer 1 and Reaction Buffer 2. The Acceptor beads were diluted 50-fold in the combined Reaction Buffers. Five μL of Acceptor Mix was added to each well, the plate was sealed and covered with foil and incubated for 1 hour at room temperature. The Donor Mix (dilution buffer+SureFire Ultra Donor Beads) was prepared by diluting Donor Beads 50-fold in dilution buffer. Five μL of the Donor Mix was added to each well and the plate sealed and covered with foil and incubated for 1 hour at room temperature in the dark. The plates were read on a Neo2 plate reader instrument from Biotek using standard AlphaLisa settings.
Compounds were tested in duplicate and the average % inhibition at each compound concentration was used to generate a single dose response curve. The data were processed using the Genedata-Screener tool. Relative IC50 values were determined using luminescence units by calculating percent inhibition with respect to the in-plate “MIN” (GDC-0032 reference control) and “MAX” (DMSO) controls. The data was analyzed using a 4-parameter nonlinear logistic equation (four-parameter logistic concentration-response curve):
Y=bottom+[(top−bottom)/1+(X/IC50)slope]
where Y=% inhibition, X=concentration of inhibitor, bottom=minimum value of y attained by curve-fit, top=maximum value of y attained by curve-fit and slope=steepness of curve at the IC50.
% Inhibition=[(signal at X−median Min)/(median Max−median Min)]×100
IC50: concentration of compound that reduces a given response (ligand binding, enzyme response) by 50%. Relative IC50: concentration giving half the compound's maximum response.
For IC50 values shown in Table B, “A” means IC50<50 nM; “B” means IC50 ranging between 50 nM and 100 nM; “C” means IC50 ranging between 100 nM and 500 nM; “D” means IC50>500 nM.

Experiment [2] has as its target T1, human full length PIK3KA H1047R mutant (p110α/p85α complex) (Homo sapiens, UniProt P42336, H1047R).
T1 construct: Recombinant, catalytically active human full length PIK3KA Wild-type and H1047R mutant were purchased; 6xHis (N); purchased EMD Millipore Sigma 14-792M
Briefly: PI3K-Alpha Kinase (PIK3CA) biochemical activity, H1047R mutant (ADP-Glo). As to conditions: 20 uM ATP. A digest of the protocol:
(§1)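 ADP formation, measured by ADP-Glo luminescence after reaction to about 10% ATP conversion at 27° C., gives 10-point 4-parameter IC50 curves normalized to no-enzyme and DMSO controls. Lipid substrate was PIP2diC8 or Soy PI at 50 uM, with 20 uM ATP. WT or H1047R p110α/p85α complex (1-5 nM) was preincubated 1 h with compound.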

In experiment [3] the target is T2, human full length PIK3KA Wild-type (p110α/p85α complex) (Homo sapiens, UniProt P42336).
T2 construct: Recombinant, catalytically active human full length PIK3KA Wild-type and H1047R mutant were purchased; 6xHis (N); purchased EMD Millipore Sigma 14-602M
The experiment in a line: PI3K-Alpha Kinase (PIK3CA) biochemical activity, wild-type (ADP-Glo). Conditions: 20 uM ATP. A digest of the protocol: as §1
(In general: In ADP-Glo the light output rises with the ADP produced.)

Where [4] appears, read: read-out: PI3K-α (PIK3CA) in vitro cell based assay IC50, 0% FBS, 3 hours treatment.

The structures appear in SMILES notation. Where two headings read alike, the source gives them in different places. A value given as a limit tells only on which side of the number the result lay.

T1 sequence (P42336 whole entry H1047R): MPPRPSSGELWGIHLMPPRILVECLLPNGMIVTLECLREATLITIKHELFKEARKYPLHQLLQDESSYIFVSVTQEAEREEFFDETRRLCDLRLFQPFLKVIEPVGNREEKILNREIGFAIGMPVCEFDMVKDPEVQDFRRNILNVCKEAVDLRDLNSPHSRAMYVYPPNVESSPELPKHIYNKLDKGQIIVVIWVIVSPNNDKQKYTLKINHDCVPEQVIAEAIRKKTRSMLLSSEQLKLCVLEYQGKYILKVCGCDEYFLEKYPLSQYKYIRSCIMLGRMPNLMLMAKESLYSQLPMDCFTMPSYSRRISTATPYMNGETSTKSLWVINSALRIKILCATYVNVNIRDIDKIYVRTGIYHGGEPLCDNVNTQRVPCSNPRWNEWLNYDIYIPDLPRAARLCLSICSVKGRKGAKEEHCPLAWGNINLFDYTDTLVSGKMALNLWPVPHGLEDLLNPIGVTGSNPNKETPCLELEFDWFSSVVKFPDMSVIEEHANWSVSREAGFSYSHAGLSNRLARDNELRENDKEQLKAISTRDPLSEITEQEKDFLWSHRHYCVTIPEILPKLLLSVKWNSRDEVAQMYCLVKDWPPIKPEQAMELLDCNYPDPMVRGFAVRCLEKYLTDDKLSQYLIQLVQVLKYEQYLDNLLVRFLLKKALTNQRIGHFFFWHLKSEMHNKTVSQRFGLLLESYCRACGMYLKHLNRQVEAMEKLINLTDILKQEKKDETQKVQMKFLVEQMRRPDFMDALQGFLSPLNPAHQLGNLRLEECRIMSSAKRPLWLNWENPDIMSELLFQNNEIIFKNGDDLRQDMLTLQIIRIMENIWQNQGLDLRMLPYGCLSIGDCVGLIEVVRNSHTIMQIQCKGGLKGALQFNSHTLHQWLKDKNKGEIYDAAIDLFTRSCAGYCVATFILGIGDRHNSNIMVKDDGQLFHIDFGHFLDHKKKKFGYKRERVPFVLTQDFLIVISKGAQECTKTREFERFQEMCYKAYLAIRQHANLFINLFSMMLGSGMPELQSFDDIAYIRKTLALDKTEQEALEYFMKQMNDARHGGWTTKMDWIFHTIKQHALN
T1 sequence (P27986 whole entry partner): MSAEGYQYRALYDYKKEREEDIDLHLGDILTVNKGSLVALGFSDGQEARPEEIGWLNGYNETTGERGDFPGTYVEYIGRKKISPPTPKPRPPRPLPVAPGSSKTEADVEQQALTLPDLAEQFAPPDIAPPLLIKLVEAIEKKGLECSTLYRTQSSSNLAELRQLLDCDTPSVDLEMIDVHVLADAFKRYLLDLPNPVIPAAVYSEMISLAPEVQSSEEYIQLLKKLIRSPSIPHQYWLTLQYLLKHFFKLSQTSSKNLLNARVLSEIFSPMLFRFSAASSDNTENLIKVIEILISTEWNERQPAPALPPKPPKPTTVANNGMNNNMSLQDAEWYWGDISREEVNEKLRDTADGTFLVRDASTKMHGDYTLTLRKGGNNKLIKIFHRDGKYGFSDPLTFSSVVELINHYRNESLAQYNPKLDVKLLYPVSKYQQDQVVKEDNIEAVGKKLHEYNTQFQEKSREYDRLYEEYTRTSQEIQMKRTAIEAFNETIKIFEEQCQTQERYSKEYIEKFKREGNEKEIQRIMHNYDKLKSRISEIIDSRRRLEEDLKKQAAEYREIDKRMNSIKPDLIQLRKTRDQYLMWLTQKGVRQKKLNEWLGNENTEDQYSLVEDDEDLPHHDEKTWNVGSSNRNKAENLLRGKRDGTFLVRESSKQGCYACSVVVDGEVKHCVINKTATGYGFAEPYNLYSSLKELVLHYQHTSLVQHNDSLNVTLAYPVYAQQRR
Sequence of PI3K-α (PIK3CA) in MDA-MB-453 cells (P42336 whole entry): as the sequence (P42336 whole entry H1047R) above, with R1047H counted along it
Sequence of PI3K-α (PIK3CA) in MDA-MB-453 cells (P27986 2-724, further chain): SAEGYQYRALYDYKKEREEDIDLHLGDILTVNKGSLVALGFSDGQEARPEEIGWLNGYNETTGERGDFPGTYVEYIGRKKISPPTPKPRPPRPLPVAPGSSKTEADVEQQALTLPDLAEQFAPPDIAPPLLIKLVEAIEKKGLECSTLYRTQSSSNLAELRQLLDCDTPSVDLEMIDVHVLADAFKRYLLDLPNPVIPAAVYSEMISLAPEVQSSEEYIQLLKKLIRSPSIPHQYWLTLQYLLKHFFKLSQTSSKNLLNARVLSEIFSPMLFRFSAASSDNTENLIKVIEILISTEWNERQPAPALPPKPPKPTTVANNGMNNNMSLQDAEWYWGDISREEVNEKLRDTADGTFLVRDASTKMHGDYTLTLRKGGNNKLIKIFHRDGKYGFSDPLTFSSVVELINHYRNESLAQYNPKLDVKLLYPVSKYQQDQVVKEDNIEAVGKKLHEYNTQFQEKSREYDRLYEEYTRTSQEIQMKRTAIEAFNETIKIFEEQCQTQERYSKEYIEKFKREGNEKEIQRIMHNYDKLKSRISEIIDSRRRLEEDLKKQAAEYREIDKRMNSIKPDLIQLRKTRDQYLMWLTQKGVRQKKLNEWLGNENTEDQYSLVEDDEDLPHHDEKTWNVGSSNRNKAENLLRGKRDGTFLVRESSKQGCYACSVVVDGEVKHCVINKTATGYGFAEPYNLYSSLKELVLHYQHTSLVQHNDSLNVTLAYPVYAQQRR

What is called IC50 is the midpoint of a concentration-inhibition curve. `COc1ccc(-n2cc(-c3cc(=O)c4cc(C)cc(C(C)Nc5ccccc5C(=O)O)c4o3)nn2)cc1OC` (single isomer, unassigned) [Example 133, 2-[1-[2-[1-(3,4-Dimethoxyphenyl)triazol-4-yl]-6-methyl-4-oxo-chromen-8-yl]ethylamino]benzoic acid, Isomer 2,2,2,2-trifluoroacetic acid]: the IC50 in experiment [1] (setting [4]) lay in the range of 100 to 500 nM.
With `COc1ccc(-n2nncc2-c2cc(=O)c3cc(C)cc(C(C)Nc4ccccc4C(=O)O)c3o2)cc1OC` (single isomer, unassigned) [Example 134, 2-[1-[2-[3-(3,4-Dimethoxyphenyl)triazol-4-yl]-6-methyl-4-oxo-chromen-8-yl]ethylamino]benzoic acid, Isomer 2,2,2,2-trifluoroacetic acid], the IC50 in experiment [1] (setting [4]) was above 500 nM.
`Cc1cc(C(C)Nc2ccccc2C(=O)O)c2oc(-c3cnn(C)c3)c(C)c(=O)c2c1` (single isomer, unassigned; isomer 1) [Example 136, 2-[1-[3,6-Dimethyl-2-(1-methylpyrazol-4-yl)-4-oxo-chromen-8-yl]ethylamino]benzoic acid, Isomer 1]: the IC50 in experiment [1] (0% FBS, 3 hours treatment, read-out: PI3K-α (PIK3CA) in vitro cell based assay IC50) was below 50 nM.
Turning to `COc1cccc(-n2cc(-c3cc(=O)c4cc(C)cc(C(C)Nc5ccccc5C(=O)O)c4o3)nn2)c1` (single isomer, unassigned; isomer 2) [Example 98, 2-[1-2-[1-(3-Methoxyphenyl)triazol-4-yl]-6-methyl-4-oxo-chromen-8-yl]ethylamino]benzoic acid, Isomer 2], the values for the IC50 in experiment [2] (Soy PI lipid substrate) and in experiment [3] (Soy PI lipid substrate) were below 500 nM and 1000 to 5000 nM, respectively.
On to `Cc1cc(C(C)Nc2ccccc2C(=O)O)c2oc(-c3ccc(OC(C)C)nc3)cc(=O)c2c1` (centres unmarked) [Example 1, 2-[1-[2-(6-Isopropoxy-3-pyridyl)-6-methyl-4-oxo-chromen-8-yl]ethylamino]benzoic acid 2,2,2-trifluoroacetic acid], for which the values for the IC50 in experiment [2] (Soy PI lipid substrate) and in experiment [3] (Soy PI lipid substrate) were 500 to 1000 nM and above 10000 nM, respectively.
In the case of `COc1ncc(-c2cc(=O)c3cc(C)cc(C(C)Nc4ccccc4C(=O)O)c3o2)cn1` (centres unmarked) [Example 2, 2-[1-[2-(2-Methoxypyrimidin-5-yl)-6-methyl-4-oxo-chromen-8-yl]ethylamino]benzoic acid 2,2,2-trifluoroacetic acid], the IC50 in experiment [2] (Soy PI lipid substrate) is below 500 nM; in experiment [3] (Soy PI lipid substrate), 5000 to 10000 nM.
For `Cc1cc(C(C)Nc2ccccc2C(=O)O)c2oc(-c3cnc(OC(C)C)nc3)cc(=O)c2c1` (centres unmarked) [Example 6, 2-[1-[2-(2-Isopropoxypyrimidin-5-yl)-6-methyl-4-oxo-chromen-8-yl]ethylamino]benzoic acid 2,2,2-trifluoroacetic acid], in that order: below 500 nM and above 10000 nM.
Take `Cc1cc(C(C)Nc2ccccc2C(=O)O)c2oc(-c3ccc(S(C)(=O)=O)nc3)cc(=O)c2c1` (centres unmarked) [Example 7, 2-[1-[6-Methyl-2-(6-methylsulfonyl-3-pyridyl)-4-oxo-chromen-8-yl]ethylamino]benzoic acid 2,2,2-trifluoroacetic acid]: the IC50 in experiment [2] (Soy PI lipid substrate) was below 500 nM; in experiment [3] (Soy PI lipid substrate), above 10000 nM.
Regarding `Cc1cc(C(C)Nc2ccccc2C(=O)O)c2oc(-c3ccc(C(F)(F)F)nc3)cc(=O)c2c1` (centres unmarked) [Example 8, 2-[1-[6-Methyl-4-oxo-2-[6-(trifluoromethyl)-3-pyridyl]chromen-8-yl]ethylamino]benzoic acid 2,2,2-trifluoroacetic acid], the results for the IC50 in experiment [2] (Soy PI lipid substrate) and in experiment [3] (Soy PI lipid substrate) were below 500 nM and 5000 to 10000 nM, respectively.
For `Cc1cc(C(C)Nc2ccccc2C(=O)O)c2oc(-c3ccc(F)nc3)cc(=O)c2c1` (centres unmarked) [Example 9, 2-[1-[2-(6-Fluoro-3-pyridyl)-6-methyl-4-oxo-chromen-8-yl]ethylamino]benzoic acid 2,2,2-trifluoroacetic acid], in that order: below 500 nM and 5000 to 10000 nM.
For `Cc1cc(C(C)Nc2ccccc2C(=O)O)c2oc(-c3cc(C#N)ccn3)cc(=O)c2c1` (centres unmarked) [Example 10, 2-[1-[2-(4-Cyano-2-pyridyl)-6-methyl-4-oxo-chromen-8-yl]ethylamino]benzoic acid 2,2,2-trifluoroacetic acid], in that order: 500 to 1000 nM and 1000 to 5000 nM.
The like results for `COc1cccc(-c2cc(=O)c3cc(C)cc(C(C)Nc4ccccc4C(=O)O)c3o2)n1` (centres unmarked) [Example 11, 2-[1-[2-(6-Methoxy-2-pyridyl)-6-methyl-4-oxo-chromen-8-yl]ethylamino]benzoic acid 2,2,2-trifluoroacetic acid] were, in that order, below 500 nM and 500 to 1000 nM.
On to `COc1ccc(-c2cc(=O)c3cc(C)cc(C(C)Nc4ccccc4C(=O)O)c3o2)cn1` (centres unmarked) [Example 12, 2-[1-[2-(6-Methoxy-3-pyridyl)-6-methyl-4-oxo-chromen-8-yl]ethylamino]benzoic acid 2,2,2-trifluoroacetic acid], for which the IC50 in experiment [2] (Soy PI lipid substrate) is below 500 nM; in experiment [3] (Soy PI lipid substrate), 1000 to 5000 nM.
For `Cc1cc(C(C)Nc2ccccc2C(=O)O)c2oc(-c3cnc(C)nc3)cc(=O)c2c1` (centres unmarked) [Example 13, 2-[1-[6-Methyl-2-(2-methylpyrimidin-5-yl)-4-oxo-chromen-8-yl]ethylamino]benzoic acid 2,2,2-trifluoroacetic acid], in that order: 500 to 1000 nM and above 10000 nM.
For `Cc1cc(C(C)Nc2ccccc2C(=O)O)c2oc(-c3ccc(F)cn3)cc(=O)c2c1` (centres unmarked) [Example 23, 2-[1-[2-(5-Fluoro-2-pyridyl)-6-methyl-4-oxo-chromen-8-yl]ethylamino]benzoic acid 2,2,2-trifluoroacetic acid], in that order: below 500 nM and 5000 to 10000 nM.
Take `Cc1cc(C(C)Nc2ccccc2C(=O)O)c2oc(-c3cnn(C)c3)cc(=O)c2c1` (centres unmarked) [Example 47, 2-[1-[6-Methyl-2-(1-methylpyrazol-4-yl)-4-oxo-chromen-8-yl]ethylamino]benzoic acid]: the values for the IC50 in experiment [2] (PIP2diC8 lipid substrate) and in experiment [3] (PIP2diC8 lipid substrate) were 500 to 1000 nM and 1000 to 5000 nM, respectively.
With `Cc1cc(C(C)Nc2ccccc2C(=O)O)c2oc(-c3cnn(-c4cccnc4)c3)cc(=O)c2c1` (centres unmarked) [Example 48, 2-[1-[6-Methyl-4-oxo-2-[1-(3-pyridyl)pyrazol-4-yl]chromen-8-yl]ethylamino]benzoic acid 2,2,2-trifluoroacetic acid], the IC50 in experiment [2] (Soy PI lipid substrate) is below 500 nM; in experiment [3] (Soy PI lipid substrate), 5000 to 10000 nM.
With `Cc1cc(C(C)Nc2cccc(F)c2C(=O)O)c2oc(-c3ccccn3)cc(=O)c2c1` (centres unmarked) [Example 100, 2-Fluoro-6-[1-[6-methyl-4-oxo-2-(2-pyridyl)chromen-8-yl]ethylamino]benzoic acid 2,2,2-trifluoroacetic acid], the IC50 in experiment [2] (Soy PI lipid substrate) is below 500 nM; in experiment [3] (Soy PI lipid substrate), above 10000 nM.
The like results for `Cc1cc(C(C)Nc2cccc(F)c2C(=O)O)c2oc(-c3cnn(-c4ccc(C#N)cc4)c3)cc(=O)c2c1` (centres unmarked) [Example 101, 2-[1-[2-[1-(4-Cyanophenyl)pyrazol-4-yl]-6-methyl-4-oxo-chromen-8-yl]ethylamino]-6-fluoro-benzoic acid 2,2,2-trifluoroacetic acid] were, in that order, below 500 nM and 500 to 1000 nM.

The values are drawn from patent publication US20230014445A1, “ALLOSTERIC CHROMENONE INHIBITORS OF PHOSPHOINOSITIDE 3-KINASE (PI3K) FOR THE TREATMENT OF DISEASE” (Petra Pharma Corporation, priority 2021, published 2023).
